# Results: patent publication US20110104290A1, “COMPOSITIONS FOR REDUCING BLOOD GLUCOSE LEVEL AND USES THEREOF” (priority 2008, published 2011)
# System: STZ-induced hyperglycemic rats
# Assay: Anti-hyperglycemic effect in STZ-induced hyperglycemic rats (serum blood glucose level)
# Format: in vivo, Sprague-Dawley (SD) rats
# Experimental: For the purpose of the present invention, the dietary supplement prepared in accordance with Example 1 is named Composition 1. Composition 1 is an herbal supplement used for control of blood glucose level. The purpose of this study was to assess the anti-hyperglycemic effect of Composition 1 tablet in STZ-induced hyperglycemic rats.
# Sprague-Dawley (SD) rats weighing 230˜270 g were used to establish the hyperglycemic rat model. Animals were fasted for 18 hours before receiving a single intraperitoneal injection of 2% STZ at a dose of 40 mg/kg BW (2.0 ml/kg). Six SD rats were selected as the Blank Control Group and injected intraperitoneally with citric acid buffer at a dose of 2.0 ml/kg BW. All rats had free access to food and water after the injection. Blood samples were collected from rats' posterior orbits veins at 72 hours after the injection for determination of the blood glucose level. Successful establishment of hyperglycemic rat model was defined as a non-fasting venous blood glucose level≧13.8 mmol/L. […]
# The clinical dose of Metformin for human is 1˜1.5 g/day, which is about 0.025 g/kg body weight/day for an adult. The administration dose of Metformin for rat was calculated to be 0.25 g/kg body weight/day, 10 times of human clinical dose. […]
smiles,measurement,setting,value
CN(C)C(=N)N=C(N)N [Metformin],blood glucose levels compared to the Model Control Group,"Metformin Control Group 0.25 g/kg/day, 3rd and 4th weeks after the beginning of administration, p<0.05",lower
same,decrease of end-point blood glucose level compared to level prior to the treatment,"Metformin Control Group, 0.25 g/kg/day i.g., after the 4-week treatment",59%
